Measurements taken from ChEMBL document CHEMBL1141123, “Hydroxyethylene sulfones as a new scaffold to address aspartic proteases: design, synthesis, and structural characterization” (J Med Chem, 2005).
Values joined by “and” are separate entries in the source; they are usually repeats but may differ in a detail not shown here. Equal values may be shown once.

How the values were obtained:
[1] = target: T1, Human immunodeficiency virus type 1 protease (Human immunodeficiency virus 1, UniProt Q72874); experiment: Binding affinity for HIV-1 protease expressed in Escherichia coli upon incubation in pH 5.5 buffer containing Abz-Thr-Ile-p-nitrophenylalanine-Phe-Gln-Arg-NH2
[2] = target: T1, Human immunodeficiency virus type 1 protease; experiment: Inhibitory concentration against HIV-1 protease expressed in Escherichia coli upon incubation in pH 5.5 buffer containing Abz-Thr-Ile-p-nitrophenylalanine-Phe-Gln-Arg-NH2
Cathepsin D = Cathepsin D (Homo sapiens, UniProt P07339); experiment: Binding affinity af the compound towards cathepsin D

| SMILES | Ki [1] | IC50 [2] | Ki (Cathepsin D) |
| --- | --- | --- | --- |
| Cc1cccc(C)c1OCC(=O)N[C@H](Cc1cccc(Br)c1)[C@@H](O)C[C@@H](CC(C)C)S(=O)(=O)c1ccc(F)cc1 | 1400 nM | 2000 nM |  |
| O=C(N[C@H](Cc1cccc(Br)c1)[C@@H](O)C[C@@H](CCc1ccc(Cl)cc1Cl)S(=O)(=O)c1ccc(F)cc1)[C@H]1CCCO1 | > 40000 nM | > 40000 nM |  |
| O=C(N[C@@H](Cc1cccc(Br)c1)[C@H](O)C[C@H](CCc1ccc(Cl)cc1Cl)S(=O)(=O)c1ccc(F)cc1)[C@H]1CCCO1 | 3900 nM and 2900 nM |  |  |
| Cc1cccc(C)c1OCC(=O)N[C@@H](Cc1cccc(Br)c1)[C@H](O)C[C@H](CC(C)C)S(=O)(=O)c1ccc(F)cc1 | 80 nM and 45 nM | 140 nM and 85 nM |  |
| CC(C)CCS(=O)(=O)[C@@H](C)C[C@@H](O)[C@H](Cc1cccc(Br)c1)NC(=O)CCS(C)(=O)=O | > 40000 nM | > 40000 nM |  |
| COc1cc(Br)c(C(=O)N[C@@H](Cc2cccc(Br)c2)[C@H](O)C[C@H](CCc2ccc(Cl)cc2Cl)S(=O)(=O)c2ccc(F)cc2)cc1OC | 3100 nM | 4500 nM |  |
| CNc1ccc(S(=O)(=O)[C@@H](CC(C)C)C[C@@H](O)[C@H](Cc2cccc(Br)c2)NC(=O)COc2c(C)cccc2C)cc1 | 370 nM | 530 nM |  |
| Cc1cccc(C)c1OCC(=O)N[C@@H](Cc1cccc(Br)c1)[C@H](O)C[C@H](CC(C)C)S(=O)(=O)c1ccc(N(C)C)cc1 | 540 nM | 790 nM |  |
| O=C(COc1ccc(Cl)cc1Cl)N[C@@H](Cc1cccc(Br)c1)[C@H](O)C[C@H](CCc1ccc(Cl)cc1Cl)S(=O)(=O)c1ccc(F)cc1 | 7000 nM | 10000 nM |  |
| COc1cc(Br)c(C(=O)N[C@@H](Cc2cccc(Oc3ccccc3)c2)[C@@H](O)CN(CCc2ccc(Cl)cc2Cl)C(=O)CCN2C(=O)c3ccccc3C2=O)cc1OC |  |  | 0.07 nM |
| CC(C)CN(C[C@@H](O)[C@H](Cc1ccccc1)NC(=O)O[C@H]1CCOC1)S(=O)(=O)c1ccc(N)cc1 [AMPRENAVIR] | 0.06 nM |  |  |
